From US20230150979A1, “AMIDE-DISUBSTITUTED PYRIDINE OR PYRIDAZINE COMPOUNDS” (BRISTOL-MYERS SQUIBB COMPANY, priority 2019, published 2023) come the findings set out here.

In the test the test system is IFNα-induced STAT phosphorylation (pSTAT5) in human whole blood, CD3 positive population. Briefly: IFNα-Induced STAT Phosphorylation in Human Whole Blood. Format: cell-based. Particulars: 1 h incubation with compound, 1000 U/mL recombinant human IFNα A/D for 15 min, pSTAT5 (pY694) median fluorescence in CD3 positive cells, read-out: Human WB IFNα-Induced Stat Phosph. (IC50). On the procedure: IFNα-Induced STAT Phosphorylation in Human Whole Blood
After an hour long incubation with compound, human whole blood (drawn with either EDTA or ACD-A as anti-coagulant) was stimulated with 1000 U/mL recombinant human IFNα A/D (R&D Systems 11200-2) for 15 min. The stimulation was stopped by adding Fix/Lyse buffer (BD 558049). Cells were stained with a CD3 FITC antibody (BD 555916), washed, and permeabilized on ice using Perm III buffer (BD 558050). Cells were then stained with an Alexa-Fluor 647 pSTAT5 (pY694) antibody (BD 612599) for 30 min prior to analysis on the FACS Canto II. The amount of pSTAT5 expression was quantitated by median fluorescence intensity after gating on the CD3 positive population.
What is called IC50 is the concentration needed to halve the response being measured. On to `COC(=O)Nc1cc(Nc2cccc(-c3ncn(C)n3)c2OC)c(C(N)=O)nn1` [Example 1, Methyl (6-carbamoyl-5-((2-methoxy-3-(1-methyl-1H-1,2,4-triazol-3-yl)phenyl)amino)pyridazin-3-yl)carbamate], for which the IC50 stood at 70 nM. For `[2H]C([2H])([2H])NC(=O)c1nnc(NC(=O)NCC)cc1Nc1cccc(-c2noc(C)n2)c1OC` [Example 2, 6-(3-ethylureido)-4-((2-methoxy-3-(5-methyl-1,2,4-oxadiazol-3-yl)phenyl)amino)-N-(trideuteromethyl)pyridazine-3-carboxamide], the 50% inhibitory concentration (IC50) worked out at 110 nM. `[2H]C([2H])([2H])NC(=O)c1nnc(NC(=O)NC)cc1Nc1cccc(-c2noc(C)n2)c1OC` [Example 3, 4-((2-methoxy-3-(5-methyl-1,2,4-oxadiazol-3-yl)phenyl)amino)-N-(trideuteromethyl)-6-(3-methylureido)pyridazine-3-carboxamide]: the IC50 is 190 nM.

For `[2H]C([2H])([2H])NC(=O)c1nnc(NC(=O)OC)cc1Nc1ccccc1S(C)(=O)=O` [Example 4, methyl (6-((methyl-d3)carbamoyl)-5-((2-(methylsulfonyl)phenyl)amino)pyridazin-3-yl)carbamate], the IC50 is over 10000 nM. To `[2H]C([2H])([2H])NC(=O)c1nnc(NC(=O)OC)cc1Nc1ccccc1NS(=O)(=O)C1CC1` [Example 5, methyl (5-((2-(cyclopropanesulfonamido)phenyl)amino)-6-((methyl-d3)carbamoyl)pyridazin-3-yl)carbamate] belongs 750 nM; to `CNC(=O)c1cnc(NC(=O)Nc2ccccc2)cc1Nc1ccccc1S(C)(=O)=O` [Example 6, N-methyl-4-((2-(methylsulfonyl)phenyl)amino)-6-(3-phenylureido)nicotinamide], over 10000 nM. To `[2H]C([2H])([2H])NC(=O)c1nnc(NC(N)=O)cc1Nc1cccc(-c2ncn(C)n2)c1OC` [Example 7, 4-((2-methoxy-3-(1-methyl-1H-1,2,4-triazol-3-yl)phenyl)amino)-N-(methyl-d3)-6-ureidopyridazine-3-carboxamide] belongs 320 nM; to `[2H]C([2H])([2H])NC(=O)c1cnc(NC(=O)OCC)cc1Nc1cccc(-c2noc(C)n2)c1OC` [Example 8], 300 nM; to `CCNC(=O)Nc1cc(Nc2ccccc2S(C)(=O)=O)c(C(=O)NC)cn1` [Example 9], 1100 nM. To `CNC(=O)Nc1cc(Nc2ccccc2S(C)(=O)=O)c(C(=O)NC)cn1` [Example 10] belongs 3690 nM; to `[2H]C([2H])([2H])NC(=O)c1nnc(NC(=O)NCC#C)cc1Nc1cccc(-c2ncn(C)n2)c1OC` [Example 11], 60 nM; to `[2H]C([2H])([2H])NC(=O)c1nnc(NC(=O)N2CCCCC2)cc1Nc1cccc(-c2ncn(C)n2)c1OC` [Example 12], 610 nM. As to `[2H]C([2H])([2H])NC(=O)c1nnc(NC(=O)OC)cc1Nc1cccc(-c2noc(COC)n2)c1OC` [Example 14], the 50% inhibitory concentration (IC50) amounted to 1100 nM. To `[2H]C([2H])([2H])NC(=O)c1nnc(NC(=O)NCC)cc1Nc1ccccc1S(C)(=O)=O` [Example 15] belongs 520 nM. Consider `[2H]C([2H])([2H])NC(=O)c1nnc(NC(=O)NCC)cc1Nc1cccc(-c2ncn(C)n2)c1OC` [Example 16], for which the IC50 was determined as 20 nM. The result for `[2H]C([2H])([2H])NC(=O)c1nnc(NC(=O)NC(C)C)cc1Nc1cccc(-c2ncn(C)n2)c1OC` [Example 18] reads 150 nM; that for `[2H]C([2H])([2H])NC(=O)c1nnc(N2CCOC2=O)cc1Nc1cccc(-c2ncc(N3CCOC3=O)cn2)c1OC` [Example 20], over 10000 nM; that for `[2H]C([2H])([2H])NC(=O)c1cnc(NC(=O)OCC)cc1Nc1cccc(-c2nnn(C)n2)c1OC` [Example 21], 420 nM.

As for `[2H]C([2H])([2H])NC(=O)c1nnc(NC(=O)N(C)C)cc1Nc1cccc(-c2ncn(C)n2)c1OC` [Example 22], the IC50 amounted to 220 nM. To `[2H]C([2H])([2H])NC(=O)c1nnc(NC(=O)NCCCC)cc1Nc1cccc(-c2ncn(C)n2)c1OC` [Example 23] belongs 150 nM. In the case of `[2H]C([2H])([2H])NC(=O)c1nnc(NC(=O)NC(C)(C)C)cc1Nc1cccc(-c2ncn(C)n2)c1OC` [Example 24], the IC50 came out at 230 nM. The result for `[2H]C([2H])([2H])NC(=O)c1nnc(NC(=O)Nc2ccccn2)cc1Nc1cccc(-c2ncn(C)n2)c1OC` [Example 25] reads 1180 nM. To `[2H]C([2H])([2H])NC(=O)c1nnc(NC(=O)N2CCOCC2)cc1Nc1cccc(-c2ncn(C)n2)c1OC` [Example 26] belongs 1180 nM; to `[2H]C([2H])([2H])NC(=O)c1nnc(NC(=O)NCCOC)cc1Nc1cccc(-c2ncn(C)n2)c1OC` [Example 27], 140 nM. The result for `[2H]C([2H])([2H])NC(=O)c1nnc(NC(=O)N2CCNCC2)cc1Nc1cccc(-c2ncn(C)n2)c1OC` [Example 28] reads over 10000 nM. On to `[2H]C([2H])([2H])NC(=O)c1cnc(NC(=O)OCC)cc1Nc1cccc(-c2ncn(C)n2)c1OC` [Example 29], for which the IC50 was determined as 110 nM.

As for `[2H]C([2H])([2H])NC(=O)c1cnc(NC(=O)OC)cc1Nc1cccc(-c2ncn(C)n2)c1OC` [Example 30], the IC50 is 100 nM. To `[2H]C([2H])([2H])NC(=O)c1cnc(NC(=O)OC(C)C)cc1Nc1cccc(-c2ncn(C)n2)c1OC` [Example 32] belongs 200 nM; to `[2H]C([2H])([2H])NC(=O)c1nnc(NC(=O)NC2CCCCC2)cc1Nc1cccc(-c2ncn(C)n2)c1OC` [Example 33], 120 nM.

Consider `[2H]C([2H])([2H])NC(=O)c1nnc(NC(=O)Nc2ccccc2)cc1Nc1cccc(-c2ncn(C)n2)c1OC` [Example 34], for which the IC50 is 520 nM.

Consider `[2H]C([2H])([2H])NC(=O)c1nnc(NC(=O)Nc2cccc(C)c2)cc1Nc1cccc(-c2ncn(C)n2)c1OC` [Example 35], for which the IC50 is 500 nM. To `[2H]C([2H])([2H])NC(=O)c1nnc(NC(=O)NCC(C)C)cc1Nc1cccc(-c2ncn(C)n2)c1OC` [Example 36] belongs 150 nM; to `[2H]C([2H])([2H])NC(=O)c1nnc(NC(=O)NCC=C)cc1Nc1cccc(-c2ncn(C)n2)c1OC` [Example 37], 60 nM. The result for `[2H]C([2H])([2H])NC(=O)c1cnc(NC(=O)OC)cc1Nc1cccc(-c2nnn(C)n2)c1OC` [Example 38] reads 130 nM. Regarding `[2H]C([2H])([2H])NC(=O)c1nnc(NC(=O)N(C)CCc2ccccc2)cc1Nc1cccc(-c2ncn(C)n2)c1OC` [Example 39], the IC50 stood at 2460 nM. To `[2H]C([2H])([2H])NC(=O)c1nnc(NC(=O)NCc2ccccc2)cc1Nc1cccc(-c2ncn(C)n2)c1OC` [Example 40] belongs 290 nM; to `[2H]C([2H])([2H])NC(=O)c1nnc(NC(=O)OC)cc1Nc1cccc(-c2ncn(C)n2)c1OC` [Example 41], 210 nM; to `[2H]C([2H])([2H])NC(=O)c1nnc(NC(=O)N(C)CC)cc1Nc1cccc(-c2ncn(C)n2)c1OC` [Example 42], 350 nM.

As for `[2H]C([2H])([2H])NC(=O)c1nnc(NC(=O)N(C)CCOC)cc1Nc1cccc(-c2ncn(C)n2)c1OC` [Example 43], the IC50 was determined as 570 nM.

As to `[2H]C([2H])([2H])NC(=O)c1nnc(NC(=O)N(C)CCC)cc1Nc1cccc(-c2ncn(C)n2)c1OC` [Example 44], the IC50 stood at 330 nM.

For `[2H]C([2H])([2H])NC(=O)c1nnc(NC(=O)NC)cc1Nc1cccc(-c2ncn(C)n2)c1OC` [Example 45], the IC50 stood at 80 nM.

As for `[2H]C([2H])([2H])NC(=O)c1nnc(NC(=O)N(C)C2CC2)cc1Nc1cccc(-c2ncn(C)n2)c1OC` [Example 46], the IC50 was 2210 nM. The result for `[2H]C([2H])([2H])NC(=O)c1nnc(NC(=O)N(C)CC(=C)C)cc1Nc1cccc(-c2ncn(C)n2)c1OC` [Example 47] reads 430 nM; that for `[2H]C([2H])([2H])NC(=O)c1nnc(NC(=O)NC(C)CC)cc1Nc1cccc(-c2ncn(C)n2)c1OC` (centres unmarked) [Example 48], 200 nM. To `[2H]C([2H])([2H])NC(=O)c1nnc(NC(=O)N(C)Cc2ccco2)cc1Nc1cccc(-c2ncn(C)n2)c1OC` [Example 49] belongs 190 nM; to `[2H]C([2H])([2H])NC(=O)c1cnc(NC(=O)OCCC)cc1Nc1cccc(-c2ncn(C)n2)c1OC` [Example 50], 150 nM; to `COC(=O)Nc1cc(Nc2cccc(-c3noc(CN(C)S(C)(=O)=O)n3)c2OC)c(C(N)=O)nn1` [Example 51], 90 nM.

On to `[2H]C([2H])([2H])NC(=O)c1nnc(NC(=O)OC)cc1Nc1ccccc1NS(C)(=O)=O` [Example 52], for which the IC50 was over 10000 nM.

`[2H]C([2H])([2H])NC(=O)c1nnc(NC(=O)OC)cc1Nc1cccc(-c2ncc(C(=O)N(C)C)s2)c1OC` [Example 53]: the half-maximal inhibitory concentration (IC50) came out at 840 nM. To `COC(=O)Nc1cc(Nc2cccc(-c3noc(CN4CCCCS4(=O)=O)n3)c2OC)c(C(N)=O)nn1` [Example 54] belongs 30 nM; to `[2H]C([2H])([2H])NC(=O)c1nnc(NC(=O)OC)cc1Nc1cccc(-c2ncc(C(=O)N3CCC3)s2)c1OC` [Example 55], 760 nM. To `COC(=O)Nc1cc(Nc2cccc(-c3noc(CN4CCOCC4)n3)c2OC)c(C(N)=O)nn1` [Example 56] belongs 110 nM; to `[2H]C([2H])([2H])NC(=O)c1nnc(NC(=O)OC)cc1Nc1cccc(-c2ncc(C(=O)N3CCC(N4CCN(CCO)CC4)CC3)s2)c1OC` [Example 57], 250 nM.
